Experimental data as given in patent publication US6355640B1, “Pyrazolopyridine adenosine antagonists” (Fujisawa Pharmaceutical Co., Ltd., priority 1993, dated 2002).

SMILES | melting point
COC(=O)[C@H]1CC[C@@H](n2nc(-c3c(-c4ccccc4)nn4ccccc34)ccc2=O)[C@H](O)C1 (relative stereo) [Example 8, 3-[2-{(1R*,2R*,4S*)-2-Hydroxy-4-methoxycarbonyl-cyclohexyl}-3-oxo-2,3-dihydropyridazin-6-yl]-2-phenylpyrazolo[1,5-a]pyridine] | 169 to 172 °C
O=c1ccc(-c2c(-c3ccccc3)nn3ccccc23)nn1C1CCC2(CC1)OCCO2 [Example 21, 3-[2-(4,4-Ethylenedioxycyclohexyl)-3-oxo-2,3-dihydropyridazin-6-yl]-2-phenylpyrazolo[1,5-a]pyridine] | 189 to 190 °C
O=C1CCCCC1Oc1ccc(-c2c(-c3ccccc3)nn3ccccc23)nn1 (single isomer, unassigned) [Example 2 (less polar compound), 3-[3-(2-Oxocyclohexyl)oxypyridazin-6-yl]-2-phenylpyrazolo[1,5-a]pyridine] | 214 to 216 °C
O=C(O)C=C1CCC(n2nc(-c3c(-c4ccccc4)nn4ccccc34)ccc2=O)CC1 (centres unmarked) [Example 51, 3-[2-(4-Carboxymethylenecyclohexyl)-3-oxo-2,3-dihydropyridazin-6-yl]-2-phenylpyrazolo[1,5-a]pyridine] | 188 to 190 °C
O=C1CCCCCC1n1nc(-c2c(-c3ccccc3)nn3ccccc23)ccc1=O (centres unmarked) [Example 11, 3-[2-(2-Oxocycloheptyl)-3-oxo-2,3-dihydropyridazin-6-yl]-2-phenylpyrazolo[1,5-a]pyridine] | 112 to 114 °C
CCCn1c(-n2nc(-c3c(-c4ccccc4)nn4ccccc34)ccc2=O)cc(=O)n(CCC)c1=O [Example 27, 3-[2-(1,3-Dipropyl-2,4-dioxo-1,2,3,4-tetrahydropyrimidin-6-yl)-3-oxo-2,3-dihydropyridazin-6-yl]-2-phenylpyrazolo[1,5-a]pyridine] | 155.3 °C
CCOC(=O)CN(C)C(=O)CC1=C(n2nc(-c3c(-c4ccccc4)nn4ccccc34)ccc2=O)CCCC1 [Example 68, 3-[2-{2-(N-ethoxycarbonylmethyl-N-methylcarbamoyl)methyl-1-cyclohexenyl}-3-oxo-2,3-dihydropyridazin-6-yl]-2-phenylpyrazolo[1,5-a]pyridine] | 56 to 60 °C
O=C(O)CON=C1CCCCC1n1nc(-c2c(-c3ccccc3)nn3ccccc23)ccc1=O (centres unmarked) [Example 57, 3-[2-(2-Carboxymethoxyiminocyclohexyl)-3-oxo-2,3-dihydropyridazin-6-yl]-2-phenylpyrazolo[1,5-a]pyridine] | 208 °C (dec.)
O=C(O)[C@H]1CCC(=O)[C@@H](n2nc(-c3c(-c4ccccc4)nn4ccccc34)ccc2=O)C1 (relative stereo) (hydrate or solvate) [Example 17, cis-3-[2-(5-Carboxy-2-oxocyclohexyl)-3-oxo-2,3-dihydropyridazin-6-yl]-2-phenylpyrazolo[1,5-a]pyridine] | 155 to 165 °C
O=c1ccc(-c2c(-c3ccccc3)nn3ccccc23)nn1[C@@H]1CCCC[C@H]1O (relative stereo) [Example 5, trans-3-[2-(2-hydroxycyclohexyl)-3-oxo-2,3-dihydropyridazin-6-yl]-2-phenylpyrazolo[1,5-a]-pyridine] | 229 to 230 °C
CCCn1c(=O)cc(-n2nc(-c3c(-c4ccccc4)nn4ccccc34)ccc2=O)n(CC(=O)OC)c1=O [Example 28, 3-[2-(2,4-Dioxo-1-methoxycarbonylmethyl-3-propyl-1,2,3,4-tetrahydropyrimidin-6-yl)-3-oxo-2,3-dihydropyridazin-6-yl]-2-phenylpyrazolo[1,5-a]pyridine] | 143 to 145 °C
O=C1NCCC1n1nc(-c2c(-c3ccccc3)nn3ccccc23)ccc1=O (centres unmarked) [Example 23, 3-[2-(2-Oxopyrrolidin-3-yl)-3-oxo-2,3-dihydropyridazin-6-yl]-2-phenylpyrazolo[1,5-a]pyridine] | 133 to 134 °C (dec.)
COC(=O)/C=C1\CCCCC1n1nc(-c2c(-c3ccccc3)nn3ccccc23)ccc1=O (centres unmarked) [Example 31, (E)-3-[2-(2-methoxycarbonylmethylenecyclohexyl)-3-oxo-2,3-dihydropyridazin-6-yl]-2-phenylpyrazolo[1,5-a]pyridine] | 156 to 157 °C

Other lines, results leading:

melting point | SMILES
129 to 131 °C | O=c1ccc(-c2c(-c3ccccc3)nn3ccccc23)nn1C1CCCCC1=Cc1nnn[nH]1 (centres unmarked) [Example 111, 3-[2-{2-(1H-tetrazol-5-yl)methylenecyclohexyl}-3-oxo-2,3-dihydropyridazin-6-yl]-2-phenylpyrazolo[1,5-a]pyridine]
175 to 176 °C | COC(=O)COc1cccc2c1CCC(n1nc(-c3c(-c4ccccc4)nn4ccccc34)ccc1=O)C2=O (centres unmarked) [Example 118, 3-[2-(1-Methoxycarbonylmethoxy-5-oxo-5,6,7,8-tetrahydro-6-naphthyl)-3-oxo-2,3-dihydropyridazin-6-yl]-2-phenylpyrazolo[1,5-a]pyridine]
70 to 72 °C | N#C/C=C1/CCCCC1n1nc(-c2c(-c3ccccc3)nn3ccccc23)ccc1=O (stereo not drawn) [Example 96 (Z)-isomer, (Z)-3-[2-{2-Cyanomethylenecyclohexyl}-3-oxo-2,3-dihydropyridazin-6-yl]-2-phenylpyrazolo[1,5-a]pyridine]
145 to 150 °C | O=C(O)CN1CCCC(n2nc(-c3c(-c4ccccc4)nn4ccccc34)ccc2=O)C1=O (centres unmarked) [Example 117, 3-[2-(1-Carboxymethyl-2-oxopiperidin-3-yl)-3-oxo-2,3-dihydropyridazin-6-yl]-2-phenylpyrazolo[1,5-a]pyridine]
163 °C | COc1ccccc1-n1nc(-c2c(-c3ccccc3)nn3ccccc23)ccc1=O [Example 101, 3-[2-(2-Methoxyphenyl)-3-oxo-2,3-dihydropyridazin-6-yl]-2-phenylpyrazolo[1,5-a]pyridine]
184 to 185 °C | O=C(CC1=C(n2nc(-c3c(-c4ccccc4)nn4ccccc34)ccc2=O)CCCC1)N1CCCCC1 [Example 85, 3-[2-{2-(Piperidinocarbonyl)methyl-1-cyclohexenyl}-3-oxo-2,3-dihydropyridazin-6-yl]-2-phenylpyrazolo[1,5-a]-pyridine]
229 to 230 °C (dec.) | C=C1CCCCC1n1nc(-c2c(-c3ccccc3)nn3ccccc23)ccc1=O (centres unmarked) [Example 93, 3-[2-(2-methylenecyclohexyl)-3-oxo-2,3-dihydropyridazin-6-yl]-2-phenylpyrazolo[1,5-a]pyridine]
161 to 162 °C | NN=C1CCCCC1n1nc(-c2c(-c3ccccc3)nn3ccccc23)ccc1=O (centres unmarked) [Example 88, 3-[2-(2-Hydrazonocyclohexyl)-3-oxo-2,3-dihydropyridazin-6-yl]-2-phenylpyrazolo[1,5-a]pyridine]
204 to 205 °C | NC(=O)CC1=C(n2nc(-c3c(-c4ccccc4)nn4ccccc34)ccc2=O)CCCC1 [Example 69, 3-[2-(2-Carbamoylmethyl-1-cyclohexenyl)-3-oxo-2,3-dihydropyridazin-6-yl]-2-phenylpyrazolo[1,5-a]pyridine]
198 to 199 °C | O=c1ccc(-c2c(-c3ccccc3)nn3ccccc23)nn1C1=C(CCO)CCCC1 [Example 105, 3-[2-{2-(2-hydroxyethyl)-1-cyclohexenyl}-3-oxo-2,3-dihydropyridazin-6-yl]-2-phenylpyrazolo[1,5-a]pyridine]
